Test results taken from patent US10131663B2, “Chemical compounds” (AstraZeneca AB, priority 2016, dated 2018).
In brackets after ≈: the same amount, converted by molar mass.

Columns and labels:
[1] = Human plasma protein binding (equilibrium dialysis); assay type: in vitro ADME; details: dialysis 18 hours
Protocol: The automated equilibrium dialysis assay in human plasma uses the RED (Rapid Equilibrium Dialysis) Device and sample handling. The assay generally runs over two to three days including delivery of results. After dialysis for 18 hours, plasma and buffer samples are prepared for analysis by liquid chromatography and mass spectrometry. Samples are generally tested in singlicates and quantified by LC/MSMS by using a 7-point calibration curve in plasma. The compounds are pooled together in plasma pools up to 10 compounds. Three reference compounds are used in each run, Propranolol, Metoprolol and Warfarin. Warfarin is used as a control in each pool and Propranolol and Metoprolol are placed randomly in each run. An in-house Excel macro is used for preparation of files for the robot and the mass spectrometer and is also used for the calculations of fraction unbound (fu %) in plasma.

[2] = log D (shake flask, 1-octanol/aqueous buffer); assay type: physicochemical
Text: The lipophilicity of a drug is an important physical property which may influence many biological and metabolic properties of a compound, for example the absorption, distribution, metabolism, excretion and toxicity profiles of a compound. The distribution coefficient between 1-octanol and aqueous buffer, Log DO/W, at pH 7.4, is the most commonly used measurement of the lipophilicity of a compound. The current method for measurement of Log DO/W is based on the traditional shake flask technique, but with the modification of measuring compounds in mixtures of ten at a time using UPLC with quantitative mass spectrometry (MS) as a method to measure the relative octanol and aqueous concentrations. […] An additional QC sample Caffeine, with low Log D, are used and randomly placed in all runs. The method has been thoroughly validated against the previous shake flask methodologies.

[3] = Thermodynamic solubility (shake-flask); assay type: physicochemical; details: aqueous phosphate buffer pH 7.4, 24 hours
Protocol: The thermodynamic solubility of a research compound is measured under standard conditions. It is a shake-flask approach that uses 10 mM DMSO solutions which are supplied from the Compound Managements liquid store and is a high throughput method. The dried compounds are equilibrated in an aqueous phosphate buffer (pH 7.4) for 24 hours at 25° C., the portion with the dissolved compound is then separated from the remains. The solutions are analyzed and quantified using UPLC/MS/MS, QC-samples are incorporated in each assay-run to ensure the quality of the assay.

[4] = molecular target: Estrogen Receptor (ERα) in MCF-7 cells (Homo sapiens (Human), UniProt P03372); experiment: MCF-7 ER down-regulation assay (immuno-fluorescence); assay type: cell-based; details: for DC50: read-out: ER down regulation IC50 value
Estrogen Receptor (ERα) in MCF-7 cells, sequence (P03372 whole entry): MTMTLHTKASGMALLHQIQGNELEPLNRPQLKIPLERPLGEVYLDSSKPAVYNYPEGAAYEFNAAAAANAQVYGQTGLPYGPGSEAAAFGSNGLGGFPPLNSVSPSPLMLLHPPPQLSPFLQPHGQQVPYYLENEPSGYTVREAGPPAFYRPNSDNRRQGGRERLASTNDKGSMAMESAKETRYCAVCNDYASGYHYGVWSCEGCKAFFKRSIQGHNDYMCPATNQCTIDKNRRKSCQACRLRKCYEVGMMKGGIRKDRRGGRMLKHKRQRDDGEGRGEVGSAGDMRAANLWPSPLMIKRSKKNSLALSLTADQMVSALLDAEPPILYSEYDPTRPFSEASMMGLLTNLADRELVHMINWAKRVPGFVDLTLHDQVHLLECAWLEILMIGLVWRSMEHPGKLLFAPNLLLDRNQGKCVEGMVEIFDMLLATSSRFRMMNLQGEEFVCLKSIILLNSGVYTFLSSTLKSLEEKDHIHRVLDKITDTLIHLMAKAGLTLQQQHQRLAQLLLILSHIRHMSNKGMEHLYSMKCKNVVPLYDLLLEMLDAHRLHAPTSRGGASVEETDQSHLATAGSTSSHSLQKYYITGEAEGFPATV
Protocol: The Echo uses acoustic technology to perform direct microplate-to-microplate transfers of DMSO compound solutions to assay plates. […] Cells were fixed at room temperature for 20 mins before being washed two times with 250 μL PBS/Proclin (PBS with a Biocide preservative) using a BioTek platewasher, 40 μL of PBS/Proclin was then added to all wells and the plates stored at 4° C. The fixing method described above was carried out on the Integrated Echo 2 workcell. Immunostaining was performed using an automated AutoElisa workcell. […] The plates were incubated overnight at 4° C. […] The mean total intensity was normalized for cell number giving the total intensity per cell. The data was exported into a suitable software package (such as Origin) to perform curve fitting analysis.

[5] = molecular target: recombinant human Estrogen Receptor alpha ligand binding domain (ER alpha-LBD (GST)) (Homo sapiens (Human), UniProt P03372); experiment: ERα binding assay (LanthaScreen TR-FRET competition); details: TR-FRET, displacement of Fluormone ES2
recombinant human Estrogen Receptor alpha ligand binding domain (ER alpha-LBD (GST)), sequence (P03372 307-554): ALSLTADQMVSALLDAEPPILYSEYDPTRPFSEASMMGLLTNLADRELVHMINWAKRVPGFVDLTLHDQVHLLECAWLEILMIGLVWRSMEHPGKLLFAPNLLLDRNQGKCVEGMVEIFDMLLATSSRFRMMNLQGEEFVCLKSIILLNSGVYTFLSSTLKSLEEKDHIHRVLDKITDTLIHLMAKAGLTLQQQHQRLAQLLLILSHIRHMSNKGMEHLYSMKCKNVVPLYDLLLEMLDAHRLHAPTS
Protocol: The ability of compounds to bind to isolated Estrogen Receptor Alpha Ligand binding domain (ER alpha-LBD (GST)) was assessed in competition assays using a LanthaScreen™ Time-Resolved Fluorescence Resonance Energy Transfer (TR-FRET) detection end-point. […] The assay principle is that ER alpha-LBD (GST) is added to a fluorescent ligand to form a receptor/fluorophore complex. A terbium-labelled anti-GST antibody (Product code PV3551) is used to indirectly label the receptor by binding to its GST tag, and competitive binding is detected by a test compound's ability to displace the fluorescent ligand, resulting in a loss of TR-FRET signal between the Tb-anti-GST antibody and the tracer. The assay was performed as follows with all reagent additions carried out using the Beckman Coulter BioRAPTR FRD microfluidic workstation: • 1. Acoustic dispense 120 nL of the test compound into a black low volume 384 well assay plates. • 2. Prepare 1×ER alpha-LBD/Tb-antiGST Ab in ES2 screening buffer and incubate for 15 minutes. • 3. Dispense 6 μL of the 1×[…]/Tb-anti-GST Ab reagent into each well of the assay plate followed by 6 μL of Fluorophore reagent into each well of the assay plate • 4. Cover the assay plate to protect the reagents from light and evaporation, and incubate at room temperature for 4 hours. • 5.
TR-FRET dose response data obtained with each compound was exported into a suitable software package (such as Origin or Genedata) to perform curve fitting analysis. Competitive ER alpha binding was expressed as an IC50 value.

[6] = 1-octanol/aqueous buffer, pH 7.4, pH 7.4, 1-octanol/aqueous buffer
[7] = aqueous phosphate buffer, 25 °C, pH 7.4, aqueous buffer, thermodynamic from solid
[8] = pH 7.4, 1-octanol/aqueous buffer

Structure (SMILES)	Human plasma protein binding (% free) [1]	logD [2, 6]	solubility at 24 h [3, 7]	further results
COC[C@](C)(F)CN1[C@H](c2ccc(OC3CN(CCCF)C3)cc2OC)c2ccc3[nH]ncc3c2C[C@H]1C (single isomer, unassigned) [Example 12]	2.7 % free	3.9	77 µM (≈ 40.7 µg/mL)	–
COC[C@](C)(F)CN1[C@H](c2ccc(OC3CN(CCCF)C3)cc2OC)c2ccc3[nH]ncc3c2C[C@H]1C (single isomer, unassigned) [Example 13]	6.4 % free	–	–	LogD pH 7.4 [2, 8]: 4; solubility at 24 h ([3]; 25° C.): 78 µM (≈ 41.2 µg/mL)
COC[C@](C)(F)CN1[C@H](c2ccc(NC3CN(CCCF)C3)cc2OC)c2ccc3[nH]ncc3c2C[C@H]1C (single isomer, unassigned) [Example 14]	16 % free	2.6	897 µM (≈ 473 µg/mL)	–
COC[C@](C)(F)CN1[C@H](c2ccc(NC3CN(CCCF)C3)cc2OC)c2ccc3[nH]ncc3c2C[C@H]1C (single isomer, unassigned) [Example 15]	34 % free	–	–	LogD pH 7.4 [2, 8]: 2.5; solubility at 24 h ([3]; 25° C.): 821 µM (≈ 433 µg/mL)
C[C@@H]1Cc2c(ccc3[nH]ncc23)[C@@H](c2c(F)cc(NC3CN(CCCF)C3)cc2F)N1CC(C)(F)CO (single isomer, unassigned) [Example 23]	9.5 % free	3.1	339 µM (≈ 176 µg/mL)	DC50 [4]: 0.15 nM; IC50 [5]: 15 nM
C[C@@H]1Cc2c(ccc3[nH]ncc23)[C@@H](c2c(F)cc(NC3CN(CCCF)C3)cc2F)N1CC(C)(F)CO (single isomer, unassigned) [Example 24]	–	–	–	DC50 [4]: 0.21 nM; IC50 [5]: 10 nM
CC(F)CN1[C@H](c2ccc(NC3CN(CCCF)C3)cn2)c2ccc3[nH]ncc3c2C[C@H]1C (single isomer, unassigned) [Example 65]	–	2.4	790 µM (≈ 359 µg/mL)	–
CC(F)CN1[C@H](c2ccc(NC3CN(CCCF)C3)cn2)c2ccc3[nH]ncc3c2C[C@H]1C (single isomer, unassigned) [Example 66]	–	–	–	LogD pH 7.4 [2, 8]: 2.3; solubility at 24 h ([3]; 25° C.): 931 µM (≈ 423 µg/mL)
COc1cc(NC2CN(CCCF)C2)ccc1[C@@H]1c2ccc3[nH]ncc3c2C[C@@H](C)N1CC(C)F (single isomer, unassigned) [Example 67]	19 % free	2.7	914 µM (≈ 442 µg/mL)	–
COc1cc(NC2CN(CCCF)C2)ccc1[C@@H]1c2ccc3[nH]ncc3c2C[C@@H](C)N1CC(C)F (single isomer, unassigned) [Example 68]	37 % free	–	–	LogD pH 7.4 [2, 8]: 2.4; solubility at 24 h ([3]; 25° C.): 561 µM (≈ 271 µg/mL)
COCC(C)(F)CN1[C@H](c2ccc(NC3CN(CCCF)C3)cc2OC)c2ccc3[nH]ncc3c2C[C@H]1C (stereo partly drawn) [Example 4, N-(4-((6S,8R)-7-(2-fluoro-3-methoxy-2-methylpropyl)-8-methyl-6,7,8,9-tetrahydro-3H-pyrazolo[4,3-f]isoquinolin-6-yl)-3-methoxyphenyl)-1-(3-fluoropropyl)azetidin-3-amine]	21 % free	2.7	991 µM (≈ 523 µg/mL)	–
COc1cc(NC2CN(CCCF)C2)cnc1[C@@H]1c2ccc3[nH]ncc3c2C[C@@H](C)N1CC(F)(F)F [Example 37, N-(1-(3-fluoropropyl)azetidin-3-yl)-5-methoxy-6-((6S,8R)-8-methyl-7-(2,2,2-trifluoroethyl)-6,7,8,9-tetrahydro-3H-pyrazolo[4,3-f]isoquinolin-6-yl)pyridin-3-amine]	25 % free	2.6	961 µM (≈ 487 µg/mL)	–
C[C@@H]1Cc2c(ccc3[nH]ncc23)[C@@H](c2ccc(N(C)C3CN(CCCF)C3)cn2)N1CC(F)F [Example 43, 6-((6S,8R)-7-(2,2-difluoroethyl)-8-methyl-6,7,8,9-tetrahydro-3H-pyrazolo[4,3-f]isoquinolin-6-yl)-N-(1-(3-fluoropropyl)azetidin-3-yl)-N-methylpyridin-3-amine]	–	–	–	IC50 [4]: 0.25 nM; IC50 [5]: 4.1 nM
FCCCN1CC(Nc2ccc([C@@H]3c4ccc5[nH]ncc5c4C[C@@H](C(F)F)N3CC(F)F)nc2)C1 [Example 51, 6-((6S,8S)-7-(2,2-difluoroethyl)-8-(difluoromethyl)-6,7,8,9-tetrahydro-3H-pyrazolo[4,3-f]isoquinolin-6-yl)-N-(1-(3-fluoropropyl)azetidin-3-yl)pyridin-3-amine]	28 % free	–	> 1000 µM	logD [2, 8]: 2.7
C[C@@H]1Cc2c(ccc3[nH]ncc23)[C@@H](c2ccc(NC3CN(CCCF)C3)nc2)N1CC1(F)CC1 [Example 54, 5-((6S,8R)-7-((1-fluorocyclopropyl)methyl)-8-methyl-6,7,8,9-tetrahydro-3H-pyrazolo[4,3-f]isoquinolin-6-yl)-N-(1-(3-fluoropropyl)azetidin-3-yl)pyridin-2-amine]	57 % free	1.4	> 1000 µM	–
C[C@@H]1Cc2c(ccc3[nH]ncc23)[C@@H](c2ccc(NC3CN(CCCF)C3)cn2)N1CC(C)(C)F [Example 63, 6-((6S,8R)-7-(2-fluoro-2-methylpropyl)-8-methyl-6,7,8,9-tetrahydro-3H-pyrazolo[4,3-f]isoquinolin-6-yl)-N-(1-(3-fluoropropyl)azetidin-3-yl)pyridin-3-amine]	10 % free	–	870 µM (≈ 408 µg/mL)	logD [2, 8]: 3.2
C[C@@H]1Cc2c(ccc3[nH]ncc23)[C@@H](c2ccc(NC3CN(CCCF)C3)cn2)N1CC(C)(F)F [Example 70, 6-((6S,8R)-7-(2,2-difluoropropyl)-8-methyl-6,7,8,9-tetrahydro-3H-pyrazolo[4,3-f]isoquinolin-6-yl)-N-(1-(3-fluoropropyl)azetidin-3-yl)pyridin-3-amine]	24 % free	–	857 µM (≈ 405 µg/mL)	logD [2, 8]: 2.9
C[C@@H]1Cc2c(ccc3[nH]ncc23)[C@@H](c2ncc(NC3CN(CCCF)C3)cc2F)N1CC(F)(F)CF [Example 71, 5-fluoro-N-(1-(3-fluoropropyl)azetidin-3-yl)-6-((6S,8R)-8-methyl-7-(2,2,3-trifluoropropyl)-6,7,8,9-tetrahydro-3H-pyrazolo[4,3-f]isoquinolin-6-yl)pyridin-3-amine]	–	–	666 µM (≈ 339 µg/mL)	logD [2, 8]: 3.2
CC1(C)Cc2c(ccc3[nH]ncc23)[C@@H](c2ccc(NC3CN(CCCF)C3)cn2)N1CC(F)(F)F [Example 72, (S)-6-(8,8-dimethyl-7-(2,2,2-trifluoroethyl)-6,7,8,9-tetrahydro-3H-pyrazolo[4,3-f]isoquinolin-6-yl)-N-(1-(3-fluoropropyl)azetidin-3-yl)pyridin-3-amine]	14 % free	–	738 µM (≈ 362 µg/mL)	logD [2, 8]: 3.3
